Publication PMC12471299, “Secondary Metabolites of the Marine Sponge-Derived Fungus Aspergillus subramanianii 1901NT-1.40.2 and Their Antimicrobial and Anticancer Activities” (Marine Drugs, 2025)
Converted amounts (≈) assume the structure as drawn. Read-outs that look alike come from different tables or passages of the source.

Key:
[1] = tested on: breast cancer MCF-7 cells; settings: cited from earlier work
CNS glioma SF-268 cells = settings: cited from earlier work
[2] = tested on: Escherichia coli VKPM (B-7935); experiment: Antimicrobial assay, growth inhibition (optical density); format: cell-based
Method in brief: (§1)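 Growth: OD 620 nm, 18 h, compound ≤100 µM; biofilm […]: MTT, OD 570 nm, 18 h. Cells pregrown on MH agar, 37 °C, 24 h. Gentamicin/amphotericin B as positive controls. Reported as MIC50 vs 1% DMSO in PBS.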

Candida albicans KMM 455 [3] = experiment: as above; format: cell-based; settings: C. albicans; for MIC50: 18 h
Method in brief: as §1

[4] = tested on: Staphylococcus aureus ATCC 21027; experiment: as above; format: cell-based
Method in brief: as §1

[5] = tested on: Escherichia coli VKPM (B-7935); experiment: Biofilm formation assay (MTT); format: cell-based
Method in brief: (§2)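 Strains were precultured on Mueller Hinton agar at 37 °C for 24 h, then exposed to compound at up to 100 µM. Growth was read as OD620 after 18 h; 18 h biofilm formation was quantified with MTT at OD570. Values are MIC50, the lowest concentration cutting growth or biofilm by 50% versus 1% DMSO/PBS control.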

Candida albicans KMM 455 [6] = experiment: Biofilm formation assay (MTT); format: cell-based
Method in brief: as §2

[7] = tested on: Staphylococcus aureus ATCC 21027; experiment: Biofilm formation assay (MTT); format: cell-based
Method in brief: as §1

[8] = tested on: non-small cell lung cancer NCIH460 cells; settings: cited from earlier work
H9c2 cardiomyocytes = experiment: Cell viability assay (MTT); format: cell-based, rat; settings: for IC50: read-out: Cytotoxicity IC50
Method in brief: (§3)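 Cells were seeded (H9c2 3 × 10^3, MDA-MB-231 and MCF-10A 5 × 10^3, HaCaT 1 × 10^4 cells/well), left 24 h, then exposed to compounds up to 100 µM for 24 h or 48 h at 37 °C, 5% CO2. Viability was read by MTT and expressed as percentage of DMSO control.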

[9] = tested on: MCF-7 breast cancer cells; experiment: Cell viability assay (MTT); format: cell-based, human
[10] = tested on: MCF-10A breast epithelial cells; experiment: Cell viability assay (MTT); format: cell-based, human; settings: MCF10A
Method in brief: as §3

[11] = tested on: MDA-MB-231 breast cancer cells; experiment: Cell viability assay (MTT); format: cell-based, human; settings: for IC50: read-out: Cytotoxicity IC50
Method in brief: as §3

HaCaT keratinocytes = experiment: Cell viability assay (MTT); format: cell-based, human; settings: for IC50: read-out: Cytotoxicity IC50
Method in brief: as §3

[12] = Cell viability assay (MTT); format: cell-based, rat; settings: rat, H9c2 cardiomyocytes, read-out: Cytotoxicity IC50
Method in brief: as §3

E. coli = tested on: E. coli; design: method as in PMID 28498358; settings: cited from earlier work
[13] = Cell viability assay (MTT); format: cell-based, human; settings: human, read-out: Cytotoxicity IC50
Method in brief: as §3

asterredione [Compound 9]
cytotoxic activity [1]: moderate cytotoxic activity | cytotoxic activity (CNS glioma SF-268 cells): moderate cytotoxic activity | MIC50 ([2]; E. coli, 18 h): >100 µM | effect on E. coli growth ([2]; at / up to 100 µM): did not affect | MIC50 (Candida albicans KMM 455 [3]): >100 µM | MIC50 ([4]; S. aureus, 18 h): >100 µM | effect on S. aureus growth ([4]; at / up to 100 µM): did not affect | Biofilm formation, MIC50 ([5]; E. coli, 18 h): >100 µM | effect on E. coli biofilm formation ([5]; at / up to 100 µM): did not affect | Biofilm formation, MIC50 (Candida albicans KMM 455 [6]; C. albicans, 18 h): >100 µM | prevention of C. albicans biofilm formation (Candida albicans KMM 455 [6]; at 100 µM): 41.18 ± 4.91% | Biofilm formation, MIC50 ([7]; S. aureus, 18 h): >100 µM | effect on S. aureus biofilm formation ([7]; at / up to 100 µM): did not affect | cytotoxic activity [8]: moderate cytotoxic activity | decrease of viability (H9c2 cardiomyocytes; H9c2, 100 µM for 48 h): 38% | cell viability (H9c2 cardiomyocytes; H9c2, 24 h, 1.0 µM): 101.1 ± 6.6 % of control | cell viability (H9c2 cardiomyocytes; H9c2, 24 h, 10.0 µM): 101.7 ± 3.2 % of control | cell viability (H9c2 cardiomyocytes; H9c2, 24 h, 100.0 µM): 73.1 ± 5.1 % of control | IC50 (H9c2 cardiomyocytes; H9c2, 24 h): > 100 µM | cell viability (H9c2 cardiomyocytes; H9c2, 48 h, 1.0 µM): 90.2 ± 7.1 % of control | cell viability (H9c2 cardiomyocytes; H9c2, 48 h, 10.0 µM): 93.0 ± 10.4 % of control | cell viability (H9c2 cardiomyocytes; H9c2, 48 h, 100.0 µM): 62.2 ± 10.4 % of control | IC50 (H9c2 cardiomyocytes; H9c2, 48 h): > 100 µM | toxicity (H9c2 cardiomyocytes; H9c2, at 10 µM): not toxic | IC50 ([9]; MCF-7, 24 h, read-out: Cytotoxicity IC50): 51.3 ± 2.6 µM | cell viability ([9]; MCF-7, 48 h, 1.0 µM): 97.8 ± 1.1 % of control | cell viability ([9]; MCF-7, 48 h, 10.0 µM): 78.6 ± 7.6 % of control | cell viability ([9]; MCF-7, 48 h, 100.0 µM): 21.2 ± 6.6 % of control | IC50 ([9]; MCF-7, 48 h, read-out: Cytotoxicity IC50): 55.1 ± 3.9 µM | IC50 ([9]; MCF-7, time not stated, read-out: IC50, viability): ~50 µM | cell viability ([10]; 24 h, 1.0 µM): 100.7 ± 0.9 % of control | cell viability ([10]; 24 h, 10.0 µM): 97.5 ± 3.5 % of control | cell viability ([10]; 24 h, 100.0 µM): 66.3 ± 3.6 % of control | IC50 ([10]; 24 h, read-out: Cytotoxicity IC50): > 100 µM | cell viability ([10]; 48 h, 1.0 µM): 96.7 ± 5.1 % of control | cell viability ([10]; 48 h, 10.0 µM): 79.4 ± 4.3 % of control | cell viability ([10]; 48 h, 100.0 µM): 61.5 ± 1.9 % of control | IC50 ([10]; 48 h, read-out: Cytotoxicity IC50): > 100 µM | IC50 ([10]; time not stated, read-out: half-maximal concentration (IC50), viability): > 100 µM | cell viability ([11]; MDA-MB-231, 24 h, 1.0 µM): 96.3 ± 3.2 % of control | cell viability ([11]; MDA-MB-231, 24 h, 10.0 µM): 106.3 ± 9.9 % of control | cell viability ([11]; MDA-MB-231, 24 h, 100.0 µM): 82.5 ± 1.3 % of control | IC50 ([11]; MDA-MB-231, 24 h): > 100 µM | cell viability ([11]; MDA-MB-231, 48 h, 1.0 µM): 103.2 ± 0.9 % of control | cell viability ([11]; MDA-MB-231, 48 h, 10.0 µM): 90.5 ± 2.7 % of control | cell viability ([11]; MDA-MB-231, 48 h, 100.0 µM): 52.9 ± 3.4 % of control | IC50 ([11]; MDA-MB-231, 48 h): ≥ 100 µM | decrease of viability (HaCaT keratinocytes; 100 µM for 48 h): 23% | cell viability (HaCaT keratinocytes; 24 h, 1.0 µM): 88.7 ± 3.0 % of control | cell viability (HaCaT keratinocytes; 24 h, 10.0 µM): 79.2 ± 2.1 % of control | cell viability (HaCaT keratinocytes; 24 h, 100.0 µM): 62.0 ± 6.9 % of control | IC50 (HaCaT keratinocytes; 24 h): > 100 µM | cell viability (HaCaT keratinocytes; 48 h, 1.0 µM): 99.5 ± 2.3 % of control | cell viability (HaCaT keratinocytes; 48 h, 10.0 µM): 92.6 ± 11.2 % of control | cell viability (HaCaT keratinocytes; 48 h, 100.0 µM): 77.1 ± 1.5 % of control | IC50 (HaCaT keratinocytes; 48 h): > 100 µM | toxicity (HaCaT keratinocytes; at 10 µM): not toxic

C=C(C)C1CCC23C(O)CCC(C)C2(C)CCC(C)C3C1c1c[nH]c2ccccc12 (stereo not drawn) [Compound 5, 10,23-dihydro-24,25-dehydroaflavinine]
MIC ([2]; Escherichia coli, E. coli, read-out: total inhibition (MIC100) of growth): 12.4 ± 1.02 µM (≈ 5.05 µg/mL) | MIC50 (Candida albicans KMM 455 [3]; Candida albicans, KMM455, 18 h): 7 to 10 µM (≈ 2.84 to 4.06 µg/mL) | MIC (Candida albicans KMM 455 [3]; Candida albicans, KMM455, read-out: total inhibition (MIC100) of growth): 11.5 ± 0.9 µM (≈ 4.66 µg/mL) | MIC ([4]; Staphylococcus aureus, ATCC21027, S. aureus, read-out: total inhibition (MIC100) of growth): 6.85 ± 0.53 µM (≈ 2.78 µg/mL) | MIC100 of biofilm formation ([5]; E. coli): 23.08 ± 2.00 µM | MIC100 of biofilm formation (Candida albicans KMM 455 [6]; C. albicans): 12.01 ± 1.01 µM | MIC100 of biofilm formation ([7]; S. aureus): 10.45 ± 0.96 µM | IC50 at 24 h ([12]; H9c2, 24 h): 9.8 ± 1.3 µM | IC50 at 48 h ([12]; H9c2, 48 h): 57.2 ± 3 µM | cell viability (H9c2 cardiomyocytes; H9c2, 24 h, 1.0 µM): 101.9 ± 2.9 % of control | cell viability (H9c2 cardiomyocytes; H9c2, 24 h, 10.0 µM): 50.5 ± 1.8 % of control | cell viability (H9c2 cardiomyocytes; H9c2, 24 h, 100.0 µM): 33.6 ± 0.3 % of control | cell viability (H9c2 cardiomyocytes; H9c2, 48 h, 1.0 µM): 105.6 ± 3.4 % of control | cell viability (H9c2 cardiomyocytes; H9c2, 48 h, 10.0 µM): 94.0 ± 3.0 % of control | cell viability (H9c2 cardiomyocytes; H9c2, 48 h, 100.0 µM): 10.1 ± 0.2 % of control | MIC50 (E. coli): 2.0 µg/mL (≈ 4.93 µM) | cell viability ([9]; MCF-7, 24 h, 1.0 µM): 100.5 ± 0.9 % of control | cell viability ([9]; MCF-7, 24 h, 10.0 µM): 97.0 ± 2.6 % of control | cell viability ([9]; MCF-7, 24 h, 100.0 µM): 10.0 ± 1.0 % of control | cell viability ([9]; MCF-7, 48 h, 1.0 µM): 78.5 ± 9.9 % of control | cell viability ([9]; MCF-7, 48 h, 10.0 µM): 81.6 ± 3.3 % of control | cell viability ([9]; MCF-7, 48 h, 100.0 µM): 21.2 ± 0.1 % of control | cell viability ([10]; 24 h, 1.0 µM): 101.7 ± 4.4 % of control | cell viability ([10]; 24 h, 10.0 µM): 95.4 ± 2.3 % of control | cell viability ([10]; 24 h, 100.0 µM): 16.1 ± 8.6 % of control | cell viability ([10]; 48 h, 1.0 µM): 92.0 ± 0.9 % of control | cell viability ([10]; 48 h, 10.0 µM): 93.9 ± 6.4 % of control | cell viability ([10]; 48 h, 100.0 µM): 9.9 ± 0.2 % of control | cell viability ([11]; MDA-MB-231, 24 h, 1.0 µM): 96.3 ± 7.5 % of control | cell viability ([11]; MDA-MB-231, 24 h, 10.0 µM): 91.3 ± 6.1 % of control | cell viability ([11]; MDA-MB-231, 24 h, 100.0 µM): 21.1 ± 0.9 % of control | cell viability ([11]; MDA-MB-231, 48 h, 1.0 µM): 103.2 ± 2.4 % of control | cell viability ([11]; MDA-MB-231, 48 h, 10.0 µM): 102.3 ± 4.1 % of control | cell viability ([11]; MDA-MB-231, 48 h, 100.0 µM): 10.6 ± 0.2 % of control | IC50 at 24 h ([13]; HaCaT keratinocytes, 24 h): 52.8 ± 1.1 µM | IC50 at 48 h ([13]; HaCaT keratinocytes, 48 h): 25.3 ± 0.8 µM | IC50 at 24 h ([13]; MCF-7 breast cancer cells, MCF-7, 24 h): 58.6 ± 4.2 µM | IC50 at 48 h ([13]; MCF-7 breast cancer cells, MCF-7, 48 h): 53.5 ± 1.1 µM | IC50 at 24 h ([13]; MCF-10A breast epithelial cells, MCF10A, 24 h): 61.5 ± 1.3 µM | IC50 at 48 h ([13]; MCF-10A breast epithelial cells, MCF10A, 48 h): 57.1 ± 2.8 µM | IC50 at 24 h ([13]; MDA-MB-231 breast cancer cells, MDA-MB-231, 24 h): 62.9 ± 3.1 µM | IC50 at 48 h ([13]; MDA-MB-231 breast cancer cells, MDA-MB-231, 48 h): 61.3 ± 2.1 µM | cell viability (HaCaT keratinocytes; 24 h, 1.0 µM): 92.3 ± 5.0 % of control | cell viability (HaCaT keratinocytes; 24 h, 10.0 µM): 88.3 ± 8.6 % of control | cell viability (HaCaT keratinocytes; 24 h, 100.0 µM): 7.8 ± 0.3 % of control | cell viability (HaCaT keratinocytes; 48 h, 1.0 µM): 72.2 ± 4.3 % of control | cell viability (HaCaT keratinocytes; 48 h, 10.0 µM): 56.8 ± 4.8 % of control | cell viability (HaCaT keratinocytes; 48 h, 100.0 µM): 16.8 ± 0.2 % of control
